Source: ChEMBL document CHEMBL1128955, “Benzolactam growth hormone secretagogues: Replacement of the C-3 amide bond in L-692,429” (1996)
Active and inactive are the calls of the source. The rule behind the calls is not given here.

What was measured:
Rattus norvegicus [1] = organism: Rattus norvegicus; experiment: In vitro growth hormone release in rat pituitary cells; assay type: functional; settings: Pituitary gland cell, read-out: ED50 (the source's name)
Rattus norvegicus [2] = organism: Rattus norvegicus; experiment: In vitro growth hormone release in rat pituitary cells at 1 uM; Weakly active; assay type: functional, cell-based; settings: Pituitary gland cell
Rattus norvegicus [3] = organism: Rattus norvegicus; experiment: In vitro growth hormone release in rat pituitary cells at 10 uM; inactive; assay type: functional, cell-based; settings: Pituitary gland cell

Row | Structure (SMILES) | EC50 (Rattus norvegicus [1]) [nM] | other results
1 | C[C@H](O)CNC(C)(C)CC(=O)N[C@@H]1CCc2ccccc2N(Cc2ccc(-c3ccccc3-c3nn[nH]n3)cc2)C1=O | 7 | 
2 | CC(C)(N)CCNC1CCc2ccccc2N(Cc2ccc(-c3ccccc3-c3nn[nH]n3)cc2)C1=O (configuration not stated) |  | Growth hormone release at 1 uM (qualitative) (Rattus norvegicus [2]): Weak activity
3 | CC(C)(N)NC(=O)N[C@@H]1CCc2ccccc2N(Cc2ccc(-c3ccccc3-c3nn[nH]n3)cc2)C1=O |  | Growth hormone release at 1 uM (qualitative) (Rattus norvegicus [2]): Weak activity
4 | C[C@@H](O)CNC(C)(C)CNC(=O)N[C@@H]1CCc2ccccc2N(Cc2ccc(-c3ccccc3-c3nn[nH]n3)cc2)C1=O |  | Growth hormone release at 1 uM (qualitative) (Rattus norvegicus [2]): Weak activity
5 | CC(C)(N)CCC(=O)N[C@@H]1CCc2ccccc2N(Cc2ccc(-c3ccccc3-c3nn[nH]n3)cc2)C1=O | 3000 | 
6 | CC(C)(N)CC(=O)NC1CCc2ccccc2N(Cc2ccc(-c3ccccc3-c3nn[nH]n3)cc2)C1=O [L-158432] | 120 | 
7 | CC(C)(N)CC(=O)N(Cc1ccccc1)[C@@H]1CCc2ccccc2N(Cc2ccc(-c3ccccc3-c3nn[nH]n3)cc2)C1=O |  | ED50 (Rattus norvegicus [3]): inactive
8 | CC(C)(N)CCSC1CCc2ccccc2N(Cc2ccc(-c3ccccc3-c3nn[nH]n3)cc2)C1=O (configuration not stated) | 6000 | 
9 | CC(C)(N)CC(=O)OC1CCc2ccccc2N(Cc2ccc(-c3ccccc3-c3nn[nH]n3)cc2)C1=O (configuration not stated) |  | Growth hormone release at 1 uM (qualitative) (Rattus norvegicus [2]): Weak activity
10 | C[C@@H](O)CNC(C)(C)CC(=O)N[C@@H]1CCc2ccccc2N(Cc2ccc(-c3ccccc3-c3nn[nH]n3)cc2)C1=O [L-692585] | 3 | 
11 | CN(C(=O)CC(C)(C)N)[C@@H]1CCc2ccccc2N(Cc2ccc(-c3ccccc3-c3nn[nH]n3)cc2)C1=O | 7000 | 
12 | CC(C)(N)CCCSC1CCc2ccccc2N(Cc2ccc(-c3ccccc3-c3nn[nH]n3)cc2)C1=O (configuration not stated) | 7000 | 
13 | CC(C)(N)CNC(=O)N[C@@H]1CCc2ccccc2N(Cc2ccc(-c3ccccc3-c3nn[nH]n3)cc2)C1=O | 100 | 
14 | CC(C)(N)C(=O)N[C@@H]1CCc2ccccc2N(Cc2ccc(-c3ccccc3-c3nn[nH]n3)cc2)C1=O | 30 | 
15 | CC(C)(N)CNC1CCc2ccccc2N(Cc2ccc(-c3ccccc3-c3nn[nH]n3)cc2)C1=O (configuration not stated) | 1000 | 
16 | C[C@H](O)CNC(C)(C)CNC(=O)N[C@@H]1CCc2ccccc2N(Cc2ccc(-c3ccccc3-c3nn[nH]n3)cc2)C1=O | 2500 | 
17 | CC(C)(N)CC(=O)N[C@@H]1CCc2ccccc2N(Cc2ccc(-c3ccccc3-c3nn[nH]n3)cc2)C1=O | 60 | 
